{
  "source": "patent US20210207064A1",
  "about": "“COMPOUND FOR RESTORING CONTAMINATED SOIL OR CONTAMINATED WATER” (FNG RESEARCH CO., LTD., priority 2018, published 2021)",
  "key": {"[1]": {"assay": "Heavy metal removal ability test in contaminated soil around a factory (WAK-Me test kit)", "conditions": "1.0 wt % aqueous solution, colour comparison test kit", "protocol": "The contaminated soil around the factory in the industrial complex was collected, pulverized, and meshed to prepare fine particles of soil samples.\nEach 3 ml of aqueous solutions for restoring soil was added to soil samples and mixed for 5 minutes."}, "[2]": {"assay": "Heavy metal removal ability test in contaminated soil (ICP-MS), cadmium", "conditions": "for Cadmium (Cd) Adsorption amount: contaminated soil; for Cadmium (Cd) Adsorption rate: relative to EDTA control", "experimental": "(§1) (1) Preparation of Soil Contaminated with Heavy Metal\n(§2) After collecting and pulverizing uncontaminated soil, fine particles obtained by using a mesh were mixed with the aqueous heavy metal solution to prepare soil samples contaminated with heavy metals.\n(§3) Each 3 ml of the prepared aqueous solution was added to a soil sample contaminated with heavy metals and mixed for 5 minutes.\n(§4) 50 ml of distilled water was added to the contaminated soil mixed with the aqueous solution for restoring soil, stirred for 20 minutes, and settled for 1 hour, and a supernatant was prepared as a sample solution.\n(§5) The prepared sample solution was analyzed for the heavy metal component using an Inductively Coupled Plasma Mass Spectrometer (ICP-MS) (Xseries™ 2, Thermo Fisher Scientific, UK).\n(§6) Adsorption rate of heavy metals (%)=(Adsorption amount of Embodiment/Adsorption amount of Control)×100 Equation 1"}, "[3]": {"assay": "Formaldehyde (formalin) removing ability test (GC)", "conditions": "2.0% formaldehyde solution, 3 molar equivalents of compound, room temperature"}, "human skin": {"system": "human skin", "assay": "Skin irritation test of active ingredient (patch method, CTFA guidelines)", "format": "in vivo", "conditions": "24 h patch; for Test result (number of subject) (+) / Test result (number of subject) (++) / Test result (number of subject) (±) / Test result (number of subject) (−): 20 people; for Test result (number of subject) (+): (+) apparent reddening; for Test result (number of subject) (++): (++) more reddened and swollen; for Test result (number of subject) (±): (±) slightly reddish; for Test result (number of subject) (−): (−) no erythema", "experimental": "A filter paper disk was placed in an 8 mm diameter, 10 panels of pin chamber.\nAfter 24 hours, the pin chamber was removed, and skin conditions were visually observed. The degree and grade for skin irritation were calculated according to the following Equation 2, and the results are shown in Table 4 below.\n[Criteria for Skin Irritation]\n(−): No erythema or particularly no symptoms; (±): slightly reddish than the periphery; (+): Apparent reddening than periphery; (++): More reddened and swollen than periphery.\n[Grade for Skin Irritation]\nDegree of irritation 0-0.1: Grade I (unstimulated);\nDegree of irritation 0.11-0.3: Grade II (weakly stimulated);\nDegree of irritation 0.31-0.5: Grade III (moderately stimulated);\nDegree of irritation 0.51 or more: Grade IV (strongly stimulated)"}, "[4]": {"assay": "Heavy metal removal ability test in contaminated soil (ICP-MS), arsenic", "conditions": "for Arsenic (As) Adsorption amount: contaminated soil; for Arsenic (As) Adsorption rate: relative to EDTA control", "experimental": "as §1, §2, §3, §4, §5, §6"}, "[5]": {"assay": "Heavy metal removal ability test in contaminated soil (ICP-MS), nickel", "conditions": "for Nickel (Ni) Adsorption amount: contaminated soil; for Nickel (Ni) Adsorption rate: relative to EDTA control", "experimental": "as §1, §2, §3, §4, §5, §6"}},
  "data": [
    {"smiles": "O=C(O)c1cncc(N2CCCN(c3cncc(C(=O)O)c3)CCN(c3cncc(C(=O)O)c3)CCCN(c3cncc(C(=O)O)c3)CC2)c1", "note": "[Embodiment 11, 5,5′,5″,5′″-(1,4,8,11-tetraazacyclotetradecane-1,4,8,11-tetrayl)tetranicotinic Acid]", "values": [
      {"measurement": "Total amount (Cu, Zn, Mn, Ni, Cd)", "setting": "[1]", "result": "≤5", "unit": "ppm"},
      {"measurement": "Cadmium (Cd) Adsorption amount", "setting": "[2]; content 0.5% aqueous solution", "result": 59, "unit": "ppm"},
      {"measurement": "Cadmium (Cd) Adsorption rate", "setting": "[2]; content 0.5%", "result": 144, "unit": "%"},
      {"measurement": "Cadmium (Cd) Adsorption amount", "setting": "[2]; content 1.0% aqueous solution", "result": 66, "unit": "ppm"},
      {"measurement": "Cadmium (Cd) Adsorption rate", "setting": "[2]; content 1.0%", "result": 161, "unit": "%"},
      {"measurement": "Cadmium (Cd) Adsorption amount", "setting": "[2]; content 2.0% aqueous solution", "result": 70, "unit": "ppm"},
      {"measurement": "Cadmium (Cd) Adsorption rate", "setting": "[2]; content 2.0%", "result": 171, "unit": "%"},
      {"measurement": "Formaldehyde GC Area, 30 min", "setting": "[3]; after 30 min", "result": 0.174, "unit": "mAU*min"},
      {"measurement": "Formaldehyde GC Area, 180 min", "setting": "[3]; after 180 min", "result": 0, "unit": "mAU*min"},
      {"measurement": "Formaldehyde GC Area, Initial", "setting": "[3]; initial state", "result": 0.305, "unit": "mAU*min"},
      {"measurement": "Test result (number of subject) (+)", "setting": "human skin; content 0.1 wt %", "result": 0},
      {"measurement": "Test result (number of subject) (++)", "setting": "human skin; content 0.1 wt %", "result": 0},
      {"measurement": "Test result (number of subject) (±)", "setting": "human skin; content 0.1 wt %", "result": 0},
      {"measurement": "Test result (number of subject) (−)", "setting": "human skin; content 0.1 wt %", "result": 20},
      {"measurement": "Degree of irritation", "setting": "human skin; content 0.1 wt %", "result": 0},
      {"measurement": "Grade for skin irritation", "setting": "human skin; content 0.1 wt %", "result": "I (Degree of irritation 0-0.1: Grade I (unstimulated))"},
      {"measurement": "Test result (number of subject) (+)", "setting": "human skin; content 0.5 wt %", "result": 0},
      {"measurement": "Test result (number of subject) (++)", "setting": "human skin; content 0.5 wt %", "result": 0},
      {"measurement": "Test result (number of subject) (±)", "setting": "human skin; content 0.5 wt %", "result": 0},
      {"measurement": "Test result (number of subject) (−)", "setting": "human skin; content 0.5 wt %", "result": 20},
      {"measurement": "Degree of irritation", "setting": "human skin; content 0.5 wt %", "result": 0},
      {"measurement": "Grade for skin irritation", "setting": "human skin; content 0.5 wt %", "result": "I (Degree of irritation 0-0.1: Grade I (unstimulated))"},
      {"measurement": "Test result (number of subject) (+)", "setting": "human skin; content 1.0 wt %", "result": 0},
      {"measurement": "Test result (number of subject) (++)", "setting": "human skin; content 1.0 wt %", "result": 0},
      {"measurement": "Test result (number of subject) (±)", "setting": "human skin; content 1.0 wt %", "result": 2},
      {"measurement": "Test result (number of subject) (−)", "setting": "human skin; content 1.0 wt %", "result": 18},
      {"measurement": "Degree of irritation", "setting": "human skin; content 1.0 wt %", "result": 0.10},
      {"measurement": "Grade for skin irritation", "setting": "human skin; content 1.0 wt %", "result": "I (Degree of irritation 0-0.1: Grade I (unstimulated))"},
      {"measurement": "Arsenic (As) Adsorption amount", "setting": "[4]; content 0.5% aqueous solution", "result": 38, "unit": "ppm"},
      {"measurement": "Arsenic (As) Adsorption rate", "setting": "[4]; content 0.5%", "result": 152, "unit": "%"},
      {"measurement": "Arsenic (As) Adsorption amount", "setting": "[4]; content 1.0% aqueous solution", "result": 41, "unit": "ppm"},
      {"measurement": "Arsenic (As) Adsorption rate", "setting": "[4]; content 1.0%", "result": 164, "unit": "%"},
      {"measurement": "Arsenic (As) Adsorption amount", "setting": "[4]; content 2.0% aqueous solution", "result": 47, "unit": "ppm"},
      {"measurement": "Arsenic (As) Adsorption rate", "setting": "[4]; content 2.0%", "result": 188, "unit": "%"},
      {"measurement": "Nickel (Ni) Adsorption amount", "setting": "[5]; content 0.5% aqueous solution", "result": 79, "unit": "ppm"},
      {"measurement": "Nickel (Ni) Adsorption rate", "setting": "[5]; content 0.5%", "result": 161, "unit": "%"},
      {"measurement": "Nickel (Ni) Adsorption amount", "setting": "[5]; content 1.0% aqueous solution", "result": 88, "unit": "ppm"},
      {"measurement": "Nickel (Ni) Adsorption rate", "setting": "[5]; content 1.0%", "result": 180, "unit": "%"},
      {"measurement": "Nickel (Ni) Adsorption amount", "setting": "[5]; content 2.0% aqueous solution", "result": 93, "unit": "ppm"},
      {"measurement": "Nickel (Ni) Adsorption rate", "setting": "[5]; content 2.0%", "result": 190, "unit": "%"}
    ]}
  ]
}
